For one data set, the system named is HepG2. Nature of the data set: Cytotoxicity against human HepG2 cells assessed as cell viability at 1 uM incubated for 24 hrs by MTT assay. The conditions noted are these: HepG2, 24 h, read-out: Activity. A general note: Formazan colour is commonly taken as a measure of viable cells.
The nature of data set [1]: Chemical stability of compound in cell culture medium assessed as parent compound remaining measured for 24 hrs by LC-MS analysis. The data set is classed as physicochemical. The conditions noted are these: read-out: Stability.
Data set [2] addresses T1, Bifunctional epoxide hydrolase 2 (Mus musculus, UniProt P34914).
T1 sequence (P34914 whole entry): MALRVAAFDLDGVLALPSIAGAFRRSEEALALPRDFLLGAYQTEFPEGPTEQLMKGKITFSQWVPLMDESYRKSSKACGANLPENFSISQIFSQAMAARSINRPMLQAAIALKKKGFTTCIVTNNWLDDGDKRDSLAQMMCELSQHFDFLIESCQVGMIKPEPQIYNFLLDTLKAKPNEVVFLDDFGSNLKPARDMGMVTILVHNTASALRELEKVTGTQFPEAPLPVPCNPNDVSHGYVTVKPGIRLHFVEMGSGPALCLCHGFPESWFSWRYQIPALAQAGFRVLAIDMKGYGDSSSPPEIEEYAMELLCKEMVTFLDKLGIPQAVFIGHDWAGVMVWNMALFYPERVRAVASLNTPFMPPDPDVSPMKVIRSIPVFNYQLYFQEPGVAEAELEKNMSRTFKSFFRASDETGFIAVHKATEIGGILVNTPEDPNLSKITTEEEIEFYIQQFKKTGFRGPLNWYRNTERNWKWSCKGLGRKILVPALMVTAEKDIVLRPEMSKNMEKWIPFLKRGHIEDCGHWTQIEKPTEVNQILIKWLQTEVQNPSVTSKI
Nature of the data set: Inhibition of mouse recombinant sEH using fluorogenic substrate.

`O=C1CCC(N2Cc3cc(N4CCN(C(=O)CCCCCCCCNC(=O)c5ccc(O[C@H]6CC[C@H](NC(=O)Nc7ccc(OC(F)(F)F)cc7)CC6)cc5)CC4)ccc3C2=O)C(=O)N1` (stereo partly drawn): the viability at 1 µM in the data set with HepG2 came out at 46%. The remaining at 24 h in data set [1] turned out to be 57%. Besides, the IC50 in data set [2] turned out to be 2.8 nM.

As a reminder, the IC50 is the point on the concentration scale where inhibition reaches its midpoint.
